A short description of series [1]: UV filter solubility in the emollients. In kind it is physicochemical. The settings on record: maximum soluble amount of ethylhexyl triazone (Uvinul T 150) in the emollient at 22 °C. The text has this:
This operation was repeated until the maximum soluble amount of the UV filter was exceeded. At higher concentrations, often a longer stirring time of several hours is necessary for complete dissolution. When in this way the maximum concentration had been determined approximately, for fine determination the concentration range was repeated around this maximum concentration with smaller initial weighed amounts of the UV filter.

Where two headings read alike, the source gives them in different places.

Consider `CCCCCCCC(=O)OCC(O)CO` (centres unmarked) [Glyceryl monocaprylate], for which the “Solubility in wt % in the test emollients” value (from here on “Solubility in wt %”) (test emollient: Isohexadecane) is “at 75% solid,”, the “Solubility in wt %” value (test emollient: Mineral oil) is recorded as less than 5% wt %, the “Solubility in wt %” value (test emollient: Octyldodecanol) is recorded as “at 75% solid,” and the “Solubility in wt %” value (test emollient: Oleyl erucate) is reported as less than 50% wt %.

Take PPG-15 stearyl ether: the “UV filter solubility: Ethylhexyl triazone” value in series [1] was determined as 7.0%.

Values taken from patent US20130071340A1, “POLYOL PARTIAL ESTERS FOR USE IN COSMETICS” (priority 2010, published 2013).
